By Papp A→B is commonly meant how fast a substance crosses the layer from the apical side. A higher Papp A→B goes with fast passage. A word on the Papp B→A: it is the apparent permeability from the basolateral to the apical side of a cell layer. The efflux ratio is the permeability from basolateral to apical divided by that in the opposite direction, in the common usage. As usually defined, the IC50 is the midpoint of a concentration-inhibition curve. As a reminder, the Papp is the rate of passage across a membrane or cell layer, normalised by area and donor concentration. Read a low Papp as slow passage.

We go through two compounds from article PMC11940194, “Synthesis, Antiproliferative Activity, and ADME Profiling of Novel Racemic and Optically Pure Aryl-Substituted Purines and Purine Bioisosteres” (Biomolecules, 2025).

Entries after “also recorded” stand apart in the source; their conditions may differ.

The test system of series [1] is MDCKII-MDR1 cells (P-glycoprotein). The series is described as follows: MDCKII-MDR1 permeability assay. The series is classed as in vitro ADME, canine cells with over-expressed human MDR1 gene. Particulars: permeability class. Put shortly: (§1)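 Bidirectional transport across MDCKII cells overexpressing human MDR1, compounds 10 µM (1% DMSO) for 60 min at 37 °C, with and without 2 µM elacridar. Monolayer integrity checked by Lucifer yellow; compound concentrations quantified by LC-MS/MS (MRM).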

Series [2] has as its system P-glycoprotein (human MDR1). Kind of series: MDCKII-MDR1 permeability assay. The series is classed as in vitro ADME, canine cells with over-expressed human MDR1 gene. The settings on record: dog, MDCK-MDR1; for Papp A→B at 60 min, 10 µM / Papp B→A at 60 min, 10 µM: 37 °C; for efflux ratio at 60 min, 10 µM: <2 no efflux, >2 active efflux. Put shortly:
as §1

For series [3], the system named is colorectal carcinoma (HT-29) cells. Kind of series: Antiproliferative MTT assay, HT-29. It is filed as cell-based, human. The settings on record: Homo sapiens, HT-29, 72 h, 72 h incubation, MTT; mean ± SD. The method, boiled down:
(§2)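 Growth inhibition is measured by MTT after cells are exposed for 72 h to compounds spanning 0.01 to 100 µM. IC50 is derived from dose–response curves by linear regression, with quadruplicate wells in two independent runs.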
On the technique in general: Formazan colour is commonly taken as a measure of viable cells.

Series [4] is described as follows: Metabolic stability in mouse liver microsomes. It is filed as in vitro ADME. From the text:
Mouse liver microsomes were obtained from Corning Life Sciences (Corning, NY, USA). DMSO, nicotinamide adenine dinucleotide phosphate (NADP), glucose-6-phosphate, glucose-6-phosphate dehydrogenase, magnesium chloride, propranolol, caffeine, diclofenac, and phosphate-buffered saline (PBS) were purchased from Sigma (St. Louis, MO, USA). Acetonitrile (ACN) and methanol (MeOH) were obtained from Merck (Darmstadt, Germany). Testosterone was purchased from Steraloids (Newport, RI, USA). Metabolic stability was assessed in mouse liver microsomes. Compounds (final concentration of 1 µM, 0.03% DMSO v/v) were incubated in duplicate in phosphate buffer (50 mM, pH 7.4) at 37 °C together with mouse liver microsomes in the absence and presence of the NADPH cofactor (0.5 mM nicotinamide adenine dinucleotide phosphate, 5 mM glucose-6-phosphate, 1.5 U/mL glucose-6-phosphate dehydrogenase, and 0.5 mM magnesium chloride). Incubation and sampling were performed on a Freedom EVO 200 (Tecan, Männedorf, CH, Switzerland) at […], 10, 20, 30, 45, and 60 min. The reaction was quenched using 3 volumes of a mixture of ACN/MeOH (2:1) containing internal standard (diclofenac), centrifuged, and the supernatants were analyzed using LC-MS/MS. The metabolic activity of the microsomes was verified via simultaneous analysis of several controls including testosterone, propranolol, and caffeine. The in vitro half-life (t1/2) was calculated using GraphPad Prism (v9.0 software) non-linear regression of % of parent compound remaining versus time. In vitro clearance, expressed as µL/min/mg, was estimated from the in vitro half-life (t1/2) and normalized for the protein amount in the incubation mixture, assuming 52.5 mg of protein per gram of liver and using constant values for mouse liver weight/body weight [87.5 g/kg] and mouse liver blood flow (LBF) [131 mL/min/kg].
All samples were quantified using tandem mass spectrometry coupled to liquid chromatography. Samples were analyzed on a Sciex API4000 Triple Quadrupole Mass Spectrometer (Sciex, Division of MDS Inc., Toronto, Canada) coupled to a Shimadzu Nexera X2 UHPLC frontend (Kyoto, Japan). Samples were injected onto a UHPLC column (HALO2 C18, 2.1 × 20 mm, 2 µm or Luna Omega 1.6 µm Polar C18 100A, 30 × 2.1 mm) and eluted with a gradient at 50 °C. The mobile phase was composed of acetonitrile/water mixture (9/1, with 0.1% formic acid) and 0.1% formic acid in deionized water. The flow rate was 0.7 mL/min under gradient conditions, leading to a total run time of 1.5–2 min. A positive ion mode with turbo spray, an ion source temperature of 550 °C, and a dwell time of 150 ms were utilized for mass spectrometric detection. Quantitation was performed using multiple reaction monitoring (MRM) at the specific transitions for each compound.

Series [5] relates to MCF-7, CFPAC-1, HT-29, HepG2 tumor cell lines and HFF-1 fibroblasts. Kind of series: Antiproliferative activity, whole cell line panel. The series is classed as cell-based, human. Particulars: tested cell lines. The protocol:
The human ATCC tumor cell lines breast adenocarcinoma (MCF7), colorectal carcinoma (HT-29), pancreatic ductal adenocarcinoma (CFPAC-1), hepatocellular carcinoma (HepG2), and normal skin fibroblasts (HFF) derived from ATCC (American Type Culture Collection) were cultured in Dulbecco’s Modified Eagle Medium (DMEM) or Minimum Essential Medium (MEM) supplemented with 10% fetal bovine serum (FBS), 2 mM L-glutamine, 100 U/mL penicillin, and 100 µg/mL streptomycin (Lonza, Basel, Switzerland) in a humidified atmosphere with 5% CO2 at 37 °C. For the experiment, carcinoma cell lines and normal human cell lines were seeded in 96-well microtiter plates at a density of 3000 cells per well and 5000 cells per well, respectively, depending on the doubling time of the specific cell line. The test substances were then added at fivefold, tenfold dilutions (0.01 to 100 µM), freshly prepared in the growth medium on the day of testing, and incubated for a further 72 h. After 72 h of incubation, the growth rate of the cells was determined using the MTT assay according to the manufacturer’s guidelines. […] The IC50 values were calculated from the dose–response curves using linear regression analysis. The experiment was performed in tetraplicates in two individual experiments.
Newly synthesized compounds were evaluated for their cytotoxic activity in vitro against four human cancer cell lines, including human breast adenocarcinoma (MCF-7), ductal pancreatic adenocarcinoma (CFPAC-1), colorectal carcinoma (HT-29), and hepatocellular carcinoma (HepG2), as well as on non-cancerous skin fibroblasts (HFF-1), to check for non-specific toxicity. Furthermore, 5-Fluorouracil (5-FU) was used as a reference drug. The results are expressed as 50% inhibitory concentration (IC50) values and are listed in Table 2, Table 3, Table 4 and Table 5.

Series [6] relates to hepatocellular carcinoma (HepG2) cells. Kind of series: Antiproliferative MTT assay, HepG2. The series is classed as cell-based, human. The settings on record: for IC50: Homo sapiens, HepG2, 72 h, 72 h incubation, MTT, mean ± SD. Put shortly: as §2

Take `OCC(c1ccc(C(F)(F)F)cc1)n1cc(Cn2ccc3c(Cl)ncnc32)nn1` (stereo not shown) [Compound 45a, 4-Chloro-7-((1-(2-hydroxy-1-(4-(trifluoromethyl)phenyl)ethyl)-1H-1,2,3-triazol-4-yl)methyl)-7H-pyrrolo[2,3-d]pyrimidine]: the Permeability result in series [1] is “good membrane permeability; also recorded: MODERATE”. In addition, in series [2], the apical-to-basolateral permeability (Papp A→B) at 60 min, 10 µM is 7.6 ×10⁻⁶ cm/s; the Papp B→A at 60 min, 10 µM was 66.4 ×10⁻⁶ cm/s; the efflux ratio at 60 min, 10 µM came out at 8.8. In series [3], this compound gave an IC50 of 26 ± 1.2 µM. The “Clearance Values (CL)” value in series [4] (predicted in vivo hepatic clearance from mouse liver microsome t1/2, 1 µM compound) is reported as 54%. Further, the “antiproliferative activity (in words)” value in series [5] is reported as “submicromolar antiproliferative activity”. The same compound yielded a half-inhibitory concentration (IC50) in series [6] of 28 ± 0.5 µM.

As for `OC(Cn1cc(Cn2cnc3c(Cl)nccc32)nn1)c1ccc(Br)cc1` (stereo not shown) [Compound 49b, 4-Chloro-1-((1-(2-hydroxy-2-(4-bromophenyl)ethyl)-1H-1,2,3-triazol-4-yl)methyl)-1H-imidazo[4,5-c]pyridine], in series [2], the Papp A→B at 60 min, 10 µM is no more than 2 ×10⁻⁶ cm/s; the Papp B→A at 60 min, 10 µM worked out at 36.9 ×10⁻⁶ cm/s; the efflux ratio at 60 min, 10 µM stood at 23.3. Also, the Papp at 60 min, 10 µM in series [2] (permeability class) is no more than 2 ×10⁻⁶ cm/s. Inhibition in series [3] was half-maximal at 10 ± 3.2 µM (IC50). Moreover, in series [4] (mouse liver microsomes), the “Clearance Class.” value is “LOW (<30% low)”. Also, in series [6], the IC50 came to 4 µM. The “SI (HepG2)” value in series [6] (SI = [IC50 HFF]/[IC50 HepG2]) turned out to be 5.3.
